Results as given in PubChem BioAssay AID588503 (Sanford-Burnham Center for Chemical Genomics, 2011).
Values joined by “and” are separate entries in the source; they are usually repeats but may differ in a detail not shown here. Equal values may be shown once. Active and inactive are the calls of the source.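 How the source made its calls: active means compounds whose mean half-maximal effective concentration EC50 is at most 20 µM; inactive means the rest.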

biological target: G-protein coupled receptor 35 (Homo sapiens) (UniProt Q9HC97); assay: GPR35 activation by analogs, SAR follow-up, selectivity assay for NTR1 agonist project, imaging, U2OS, beta-arrestin-GFP (AID 588503); details: GPR35-U2OS beta-arrestin-GFP translocation imaging
Sequence (Q9HC97 whole entry, looked up): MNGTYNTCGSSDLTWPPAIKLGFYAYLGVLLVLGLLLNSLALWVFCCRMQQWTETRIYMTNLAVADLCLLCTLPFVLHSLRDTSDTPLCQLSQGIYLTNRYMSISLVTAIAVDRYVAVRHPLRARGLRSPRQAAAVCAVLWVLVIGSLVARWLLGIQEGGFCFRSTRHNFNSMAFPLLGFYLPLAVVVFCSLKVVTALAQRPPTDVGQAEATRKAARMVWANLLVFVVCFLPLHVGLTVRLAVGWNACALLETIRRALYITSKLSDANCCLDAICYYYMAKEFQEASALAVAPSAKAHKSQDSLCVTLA

Row | SMILES | EC50
1 | CN(C)S(=O)(=O)c1ccc(-c2csc(N/N=C/c3cccs3)n2)cc1 | > 40 µM (inactive)
2 | COc1cccc(OC)c1-c1nc(C(=O)N[C@@H](CC(C)C)C(=O)O)cn1-c1cccc2ccccc12 | > 40 µM (inactive)
3 | CCOc1ccc(-c2nnc3c4cc(OC)c(OC)cc4n(Cc4ccccc4)cc2-3)cc1 | inactive
4 | COc1ccc(Cn2c(SCc3ccccc3)nc3cc(OC)c(OC)cc3c2=N)cc1Cl | > 40 µM (inactive)
5 | Cc1ccc(Cn2cc3c(-c4ccc(F)cc4)nnc-3c3cc4c(cc32)OCO4)cc1 | > 40 µM (inactive)
6 | COc1cc2nc(C3CCC3)nc(N3CCN(c4ccccc4OC)CC3)c2cc1OC | > 40 µM (inactive)
7 | CC(C)C[C@H](NC(=O)c1cn(-c2ccnc3cc(Cl)ccc23)c(-c2c(Cl)cccc2Cl)n1)C(=O)O | > 40 µM (inactive)
8 | COc1cc2c3nnc(-c4ccc(Cl)cc4)c-3cn(Cc3ccccc3)c2cc1OC | 10.5 µM
9 | Clc1ccccc1-n1ncc2c(N3CCN(c4ccccc4)CC3)ncnc21 | > 40 µM (inactive)
10 | CN(C)S(=O)(=O)c1ccc(-c2csc(N/N=C/c3ccco3)n2)cc1 | > 40 µM (inactive)
11 | COc1ccccc1-c1cc(C(=O)N[C@@H](CC(C)C)C(=O)O)nn1-c1ccnc2cc(Cl)ccc12 | > 40 µM (inactive)
12 | Cc1ccc(-n2ncc3c(N4CCN(c5ccccc5F)CC4)ncnc32)c(C)c1 | > 40 µM (inactive)
13 | Cc1ccc(-n2ncc3c(N4CCN(c5ccccc5)CC4)ncnc32)c(C)c1 | > 40 µM (inactive)
14 | O=S(=O)(c1ccc(-c2csc(N/N=C/c3ccco3)n2)cc1)N1CCCC1 | > 40 µM (inactive)
15 | COc1cc2nc(-c3ccccc3)nc(N3CCN(c4ccccc4OC)CC3)c2cc1OC | > 40 µM (inactive)
16 | COc1ccc(Cn2c(SCc3cccc(C(F)(F)F)c3)nc3cc(OC)c(OC)cc3c2=N)cc1Cl | > 40 µM (inactive)
17 | COc1cc2c3nnc(-c4ccc(F)cc4)c-3cn(Cc3cccc(C)c3)c2cc1OC | 6.07 µM
18 | COc1cc2c3nnc(-c4ccc(C)cc4)c-3cn(Cc3ccc(C)cc3)c2cc1OC | 8.86 µM
19 | COc1ccc(Cn2c(SCc3cc(C)ccc3C)nc3cc(OC)c(OC)cc3c2=N)cc1Cl | > 40 µM (inactive)
20 | COc1ccc(Cn2c(SCc3ccccc3C)nc3cc(OC)c(OC)cc3c2=N)cc1Cl | > 40 µM (inactive)
21 | COc1ccccc1N1CCN(c2ncnc3c2cnn3-c2ccc(C)cc2C)CC1 | > 40 µM (inactive)

Row | SMILES | EC50
22 | COc1cccc(OC)c1-c1cc(C(=O)N[C@@H](CC(C)C)C(=O)O)nn1-c1ccnc2cc(Cl)ccc12 | > 40 µM (inactive)
23 | Cc1cccc(C)c1-c1nc(C(=O)N[C@@H](CC(C)C)C(=O)O)cn1-c1ccnc2cc(Cl)ccc12 | > 40 µM (inactive)
24 | COc1ccc(Cn2c(SCc3ccc(C)cc3)nc3cc(OC)c(OC)cc3c2=N)cc1Cl | inactive
25 | COc1cccc(OC)c1-c1nc(C(=O)N[C@@H](CC(C)C)C(=O)O)cn1-c1ccnc2ccccc12 | > 40 µM (inactive)
26 | COc1cccc(N2CCN(c3ncnc4c3cnn4-c3ccc(C)cc3C)CC2)c1 | > 40 µM (inactive)
27 | COc1cc2c3nnc(-c4ccc(Cl)cc4)c-3cn(Cc3ccc(C)cc3)c2cc1OC | > 40 µM (inactive)
28 | COc1cc2nc(C3CCC3)nc(N3CCN(c4ccccc4C)CC3)c2cc1OC | > 40 µM (inactive)
29 | COc1cccc(OC)c1-c1nc(C(=O)N[C@@H](CC(C)C)C(=O)O)cn1-c1ccnc2cc(Cl)ccc12 | > 40 µM (inactive)
30 | Cc1cc(Cl)ccc1-n1ncc2c(N3CCN(c4ccccc4)CC3)ncnc21 | > 40 µM (inactive)
31 | COc1cc2c3nnc(-c4ccccc4)c-3cn(Cc3ccccc3)c2cc1OC | inactive
32 | COc1cc2c3nnc(-c4ccc(F)cc4)c-3cn(Cc3ccccc3)c2cc1OC | 9.82 µM
33 | Cc1ccc(C)c(-n2ncc3c(N4CCN(c5ccccc5)CC4)ncnc32)c1 | > 40 µM (inactive)
34 | COc1cc2c3nnc(-c4ccc(C)c(C)c4)c-3cn(Cc3ccccc3)c2cc1OC | inactive
35 | CCN(CC)S(=O)(=O)c1ccc(-c2csc(N/N=C/c3ccco3)n2)cc1 | inactive
36 | COc1cc2c3nnc(-c4ccc(F)cc4)c-3cn(Cc3ccc(C)cc3)c2cc1OC | 8.57 µM and 7.58 µM
37 | COc1cc2c3nnc(-c4ccc(C)cc4)c-3cn(Cc3ccc(F)cc3)c2cc1OC | 8.31 µM
38 | COc1cc2c3nnc(-c4ccc(Cl)cc4)c-3cn(Cc3ccc(F)cc3)c2cc1OC | 8.32 µM
39 | COc1ccc(-c2nnc3c4cc(OC)c(OC)cc4n(Cc4ccc(C)cc4)cc2-3)cc1 | 6.26 µM
40 | CCOc1ccc(-c2nnc3c4cc(OC)c(OC)cc4n(Cc4ccc(C)cc4)cc2-3)cc1 | > 40 µM (inactive)
41 | COc1cc2c3nnc(-c4ccc(F)cc4)c-3cn(Cc3ccc(F)cc3)c2cc1OC | 13.6 µM
42 | CCOc1ccc(-c2nnc3c4cc(OC)c(OC)cc4n(Cc4ccc(F)cc4)cc2-3)cc1 | inactive
